Target: T1, Human complement C1s enzyme (Homo sapiens, UniProt P09871)
T1 construct: purified from human serum, Complement Technology, Inc; purchased Complement Technology, Inc; host or cells: human serum (plasma-derived native protein)
T1 sequence (P09871 438-688 limits assumed): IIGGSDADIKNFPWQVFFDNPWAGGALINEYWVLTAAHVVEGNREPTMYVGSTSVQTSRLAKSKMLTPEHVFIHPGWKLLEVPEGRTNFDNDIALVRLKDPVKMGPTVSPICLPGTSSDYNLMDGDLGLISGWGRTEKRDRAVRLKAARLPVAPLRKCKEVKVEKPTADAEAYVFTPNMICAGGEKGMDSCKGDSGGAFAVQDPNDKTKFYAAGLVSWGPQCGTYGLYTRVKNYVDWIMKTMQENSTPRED
T1 sequence (P09871 16-437 partner limits assumed): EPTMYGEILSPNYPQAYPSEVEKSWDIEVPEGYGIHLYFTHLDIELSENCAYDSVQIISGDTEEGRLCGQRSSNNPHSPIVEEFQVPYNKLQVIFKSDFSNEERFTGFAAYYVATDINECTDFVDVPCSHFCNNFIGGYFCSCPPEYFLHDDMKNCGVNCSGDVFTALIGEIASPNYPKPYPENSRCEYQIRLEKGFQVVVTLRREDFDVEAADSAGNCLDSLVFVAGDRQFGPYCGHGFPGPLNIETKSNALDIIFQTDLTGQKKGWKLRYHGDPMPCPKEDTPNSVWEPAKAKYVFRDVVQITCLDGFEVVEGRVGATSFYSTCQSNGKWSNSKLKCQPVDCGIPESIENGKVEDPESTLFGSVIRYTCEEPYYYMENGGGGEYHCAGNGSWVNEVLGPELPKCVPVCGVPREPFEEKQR
Experiment: Human C1s enzyme assay
Format: biochemical
Conditions: human complement C1s enzyme 1.16 nM, substrate Z-L-Lys-SBzl, A405; read-out: IC50 (Stars)
Summary of the method: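 Serum-purified human C1s (1.16 nM final) preincubated 5 min at room temperature with compound in 50 mM Tris, 1 M NaCl, pH 7.5. Z-L-Lys-SBzl and DTNB added at 100 μM each; A405 recorded every 30 s. IC50 from nonlinear regression of reaction rates versus compound concentration.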

IC50	Compound
< 100 nM	O=C(Cn1c(-c2ccccc2)ncc(NC(=O)c2ccc(C(=O)c3ccccc3)cc2)c1=O)NCc1cc2cnccc2[nH]1 [Compound 73, N-(1-(2-(((1H-pyrrolo[3,2-c]pyridin-2-yl)methyl)amino)-2-oxoethyl)-6-oxo-2-phenyl-1,6-dihydropyrimidin-5-yl)-4-benzoylbenzamide]
100 to 1000 nM	O=C(Cn1c(-c2ccccc2)ncc(Br)c1=O)NCc1cc2cnccc2[nH]1 [Compound 71, N-((1H-pyrrolo[3,2-c]pyridin-2-yl)methyl)-2-(5-bromo-6-oxo-2-phenylpyrimidin-1(6H)-yl)acetamide]
> 1000 nM	C[C@H](NC(=O)Cn1c(-c2ccccc2)ncc(NCCCc2ccccc2)c1=O)c1cc2cnccc2[nH]1 [Compound 9, (S)—N-(1-(1H-pyrrolo[3,2-c]pyridin-2-yl)ethyl)-2-(6-oxo-2-phenyl-5-((3-phenylpropyl)amino)pyrimidin-1(6H)-yl)acetamide]
< 100 nM	C[C@H](Nc1cncn(CC(=O)NCc2cc3cnccc3[nH]2)c1=O)c1ccc2oc3ccccc3c2c1 [Compound 265, (S)—N-((1H-pyrrolo[3,2-c]pyridine-2-yl)methyl)-2-(5-((1-(dibenzo[b,d]furan-2-yl)ethyl)amino)-6-oxopyrimidin-1(6H)-yl)acetamide]
< 100 nM	Cc1cccc(-c2ncc(N[C@H](C)c3ccc4oc5ccccc5c4c3)c(=O)n2CC(=O)NCc2cc3cnccc3[nH]2)c1F [Compound 434, (R)-N-((1H-pyrrolo[3,2-c]pyridin-2-yl)methyl)-2-(5-((1-(dibenzo[b,d]furan-2-yl)ethyl)amino)-2-(2-fluoro-3-methylphenyl)-6-oxopyr-imidin-1(6H)-yl)acetamide]
< 100 nM	C[C@@H](Nc1ncc(-c2ccccc2F)n(CC(=O)NCc2cc3cnccc3[nH]2)c1=O)c1ccc2oc3ccccc3c2c1 [Compound 322, (R)-N-((1H-pyrrolo[3,2-c]pyridin-2-yl)methyl)-2-(3-((1-(dibenzo[b,d]furan-2-yl)ethyl)-amino)-6-(2-fluorophenyl)-2-oxopyrazin-1(2H)-yl)acetamide]
< 100 nM	O=C(Cn1c(C2CCCC2)ncc(NCc2ccc3oc4ccccc4c3c2)c1=O)NCc1cc2cnccc2[nH]1 [Compound 253, N-((1H-pyrrolo[3,2-c]pyridine-2-yl)methyl)-2-(2-cyclopentyl-5-((dibenzo[b,d]furan-2-ylmethyl)amino)-6-oxopyrimidin-1(6H)-yl)acetamide]
< 100 nM	CO[C@@H]1CO[C@H]2[C@@H]1OC[C@H]2Oc1ccc(-c2ncc(NCCCc3ccccc3)c(=O)n2CC(=O)NCc2cc3cnccc3[nH]2)cc1 [Compound 189, N-((1H-pyrrolo[3,2-c]pyridine-2-yl)methyl)-2-(2-(4-(((3R,3aR,6R,6aR)-6-methoxyhexahydrofuro[3,2-b]furan-3-yl)oxy)phenyl)-6-oxo-5-((3-phenylpropyl)amino)pyrimidin-1(6H)-yl)acetamide]
< 100 nM	C[C@@H](Nc1cnc(-c2cn[nH]c2)n(CC(=O)NCc2cc3cnccc3[nH]2)c1=O)c1ccc2oc3ccccc3c2c1 [Compound 360, (R)—N-((1H-pyrrolo[3,2-c]pyridin-2-yl)methyl)-2-(5-((1-(dibenzo[b,d]furan-2-yl)ethyl)amino)-6-oxo-2-(1H-pyrazol-4-yl)pyrimidin-1(6H)-yl)acetamide]
< 100 nM	CP(=O)(O)c1ccc(CCCNc2cnc(-c3ccccc3)n(CC(=O)NCc3cc4cnccc4[nH]3)c2=O)cc1 [Compound 91, (4-(3-((1-(2-(((1H-pyrrolo[3,2-c]pyridine-2-yl)methyl)amino)-2-oxoethyl)-6-oxo-2-phenyl-1,6-dihydropyrimidin-5-yl)amino)propyl)phenyl)(methyl)phosphinic acid]
100 to 1000 nM	C[C@@H](Nc1cncn(CC(=O)NCc2cc3cnccc3[nH]2)c1=O)c1ccc2oc3ccccc3c2c1 [Compound 310, (R)-N-((1H-pyrrolo[3,2-c]pyridin-2-yl)methyl)-2-(5-((1-(dibenzo[b,d]furan-2-yl)ethyl)-amino)-6-oxopyrimidin-1(6H)-yl)acetamide]
< 100 nM	O=C(Cn1cncc(NC(=O)c2coc(-c3ccccc3)n2)c1=O)NCc1cc2cnccc2[nH]1 [Compound 392, N-(1-(2-(((1H-pyrrolo[3,2-c]pyridin-2-yl)methyl)amino)-2-oxoethyl)-6-oxo-1,6-dihydro-pyrimidin-5-yl)-2-phenyl-oxazole-4-carboxamide]
< 100 nM	Cc1ccc(F)c(-c2ncc(NCCCc3ccccc3)c(=O)n2CC(=O)NCc2cc3cnccc3[nH]2)c1 [Compound 439, N-((1H-pyrrolo[3,2-c]pyridin-2-yl)methyl)-2-(2-(2-fluoro-5-methylphenyl)-6-oxo-5-((3-phenylpropyl)amino)pyrimi-din-1(6H)-yl)acetamide]
< 100 nM	O=C(Cn1c(-c2ccccc2)ncc(Nc2ccc3oc4ccccc4c3c2)c1=O)NCc1cc2cnccc2[nH]1 [Compound 234, N-((1H-pyrrolo[3,2-c]pyridin-2-yl)methyl)-2-(5-(dibenzo [b,d]furan-2-ylamino)-6-oxo-2-phenylpyrimidin-1(6H)-yl)-acetamide]
< 100 nM	CO[C@@H]1CO[C@H]2[C@@H]1OC[C@H]2Oc1ccc(-c2ncc(NC(=O)c3ccc(-c4ccccc4)s3)c(=O)n2CC(=O)NCc2cc3cnccc3[nH]2)cc1 [Compound 249, N-(1-(2-(((1H-pyrrolo[3,2-c]pyridine-2-yl)methyl)amino)-2-oxoethyl)-2-(4-(((3R,3aR,6R,6aR)-6-methoxyhexahydrofuro[3,2-b]furan-3-yl)oxy)phenyl)-6-oxo-1,6-dihydropyrimidin-5-yl)-5-phenylthiophene-2-carboxamide]
< 100 nM	O=C(Cn1c(-c2ccccc2)ncc(NCc2ccc(-c3ccccc3)s2)c1=O)NCc1cc2cnccc2[nH]1 [Compound 258, N-((1H-pyrrolo[3,2-c]pyridine-2-yl)methyl)-2-(6-oxo-2-phenyl-5-(((5-phenylthiophen-2-yl)methyl)amino)pyrimidin-1(6H)-yl)acetamide]
< 100 nM	C[C@@H](Nc1cnc(-c2ccco2)n(CC(=O)NCc2cc3cnccc3[nH]2)c1=O)c1ccc2oc3ccccc3c2c1 [Compound 326, (R)-N-((1H-pyrrolo[3,2-c]pyridin-2-yl)methyl)-2-(5-((1-(dibenzo[b,d]furan-2-yl)ethyl)-amino)-2-(furan-2-yl)-6-oxo-pyrimidin-1(6H)-yl)acetamide]
< 100 nM	O=C(Cn1c(-c2ccccc2)ncc(NCCCOc2ccccc2)c1=O)NCc1cc2cnccc2[nH]1 [Compound 7, N-((1H-pyrrolo[3,2-c]pyridin-2-yl)methyl)-2-(6-oxo-5-((3-phenoxypropyl)amino)-2-phenylpyrimidin-1(6H)-yl)-acetamide]
< 100 nM	O=C(Cn1c(-c2ccccc2)ncc(NCc2cc(-c3ccccc3)no2)c1=O)NCc1cc2cnccc2[nH]1 [Compound 457, N-((1H-pyrrolo[3,2-c]pyridin-2-yl)methyl)-2-(6-oxo-2-phen-yl-5-(((3-phenylisoxazol-5-yl)methyl)amino)pyrimidin-1(6H)-yl)acetamide]
< 100 nM	O=C(Cn1c(-c2ccccc2)ncc(NC(=O)CCc2ccccc2)c1=O)NCc1cc2cnccc2[nH]1 [Compound 5, N-(1-(2-(((1H-pyrrolo[3,2-c]pyridin-2-yl)methyl)amino)-2-oxoethyl)-6-oxo-2-phenyl-1,6-dihydropyrimidin-5-yl)-3-phenylpropanamide]
< 100 nM	O=C(Cn1c(-c2ccccc2)ncc(NC(=O)c2nc(-c3ccccc3)cs2)c1=O)NCc1cc2cnccc2[nH]1 [Compound 208, N-(1-(2-(((1H-pyrrolo[3,2-c]pyridin-2-yl)methyl)amino)-2-oxoethyl)-6-oxo-2-phenyl-1,6-dihydropyrimidin-5-yl)-4-phen-ylthiazole-2-carboxamide]
< 100 nM	C[C@@H](Nc1cnc(N2CCC3(CC2)OCCO3)n(CC(=O)NCc2cc3cnccc3[nH]2)c1=O)c1ccc2oc3ccccc3c2c1 [Compound 382, (R)-N-((1H-pyrrolo[3,2-c]pyridin-2-yl)methyl)-2-(5-((1-(dibenzo[b,d]furan-2-yl)ethyl)-amino)-6-oxo-2-(1,4-dioxa-8-azaspiro[4.5]decan-8-yl)pyr-imidin-1(6H)-yl)acetamide]
< 100 nM	C[C@@H](Nc1ncc(N2CCNCC2)n(CC(=O)NCc2cc3cnccc3[nH]2)c1=O)c1ccc2oc3ccccc3c2c1 [Compound 444, (R)-N-((1H-pyrrolo[3,2-c]pyridin-2-yl)methyl)-2-(3-((1-(dibenzo[b,d]furan-2-yl)ethyl)-amino)-2-oxo-6-(piperazin-1-yl)pyrazin-1(2H)-yl)acetamide]
100 to 1000 nM	C[C@@H](Nc1cnc(N2CCCCC2)n(CC(=O)NCc2cc3cnccc3[nH]2)c1=O)c1coc(-c2ccccc2F)n1 [Compound 475, (R)—N-((1H-Pyrrolo[3,2-c]pyridine-2-yl)methyl)-2-(5-((1-(2-(2-fluorophenyl)oxazol-4-yl)ethyl)amino)-6-oxo-2-(piperidin-1-yl)pyrimidin-1(6H)-yl) acetamide]
